Measured values taken from PubChem BioAssay (NCI).
Values joined by “and” are separate entries in the source; they are usually repeats but may differ in a detail not shown here. Identical values can stand only once.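 Cultured in 96-well plates, cells were exposed to test compound for 48 hours across five concentrations. Abbreviation: GI50, concentration required for 50% inhibition of growth. TGI is the concentration that stops growth completely.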

Legend:
Assay in all cases: DTP human tumour cell line panel, 48 h
786-0 renal = system: 786-0 renal
A498 renal = system: A498 renal
A549 NSCLC = system: A549 NSCLC
ACHN renal = system: ACHN renal
BT-549 breast = system: BT-549 breast
CAKI-1 renal = system: CAKI-1 renal
CCRF-CEM leukemia = system: CCRF-CEM leukemia
COLO 205 colon = system: COLO 205 colon
DU-145 prostate = system: DU-145 prostate
EKVX NSCLC = system: EKVX NSCLC
HCC-2998 colon = system: HCC-2998 colon
HCT-116 colon = system: HCT-116 colon
HCT-15 colon = system: HCT-15 colon
HL-60(TB) leukemia = system: HL-60(TB) leukemia
HOP-62 NSCLC = system: HOP-62 NSCLC
HOP-92 NSCLC = system: HOP-92 NSCLC
HS 578T breast = system: HS 578T breast
HT29 colon = system: HT29 colon
IGROV1 ovarian = system: IGROV1 ovarian
K-562 leukemia = system: K-562 leukemia
KM12 colon = system: KM12 colon
LOX IMVI melanoma = system: LOX IMVI melanoma
M14 melanoma = system: M14 melanoma
MALME-3M melanoma = system: MALME-3M melanoma
MCF7 breast = system: MCF7 breast
MDA-MB-231 breast = system: MDA-MB-231 breast
MDA-MB-435 = system: MDA-MB-435
MOLT-4 leukemia = system: MOLT-4 leukemia
NCI-H226 lung = system: NCI-H226 lung
NCI-H23 lung = system: NCI-H23 lung
NCI-H460 lung = system: NCI-H460 lung
NCI-H522 lung = system: NCI-H522 lung
NCI/ADR-RES ovarian = system: NCI/ADR-RES ovarian
OVCAR-3 ovarian = system: OVCAR-3 ovarian
OVCAR-4 ovarian = system: OVCAR-4 ovarian
OVCAR-5 ovarian = system: OVCAR-5 ovarian
OVCAR-8 ovarian = system: OVCAR-8 ovarian
PC-3 prostate = system: PC-3 prostate
RPMI-8226 leukemia = system: RPMI-8226 leukemia
RXF 393 renal = system: RXF 393 renal
SF-268 CNS = system: SF-268 CNS
SF-295 CNS = system: SF-295 CNS
SF-539 CNS = system: SF-539 CNS
SK-MEL-2 melanoma = system: SK-MEL-2 melanoma
SK-MEL-28 melanoma = system: SK-MEL-28 melanoma
SK-MEL-5 melanoma = system: SK-MEL-5 melanoma
SK-OV-3 ovarian = system: SK-OV-3 ovarian
SN12C renal = system: SN12C renal
SNB-19 CNS = system: SNB-19 CNS
SNB-75 CNS = system: SNB-75 CNS
SR leukemia = system: SR leukemia
SW-620 colon = system: SW-620 colon
T-47D breast = system: T-47D breast
TK-10 renal = system: TK-10 renal
U251 CNS = system: U251 CNS
UACC-257 melanoma = system: UACC-257 melanoma
UACC-62 melanoma = system: UACC-62 melanoma
UO-31 renal = system: UO-31 renal
MDA-N = system: MDA-N

Cc1c(C(=O)Nc2ccc(N3C[C@@H](C)O[C@@H](C)C3)nc2)cccc1-c1ccc(OC(F)(F)F)cc1
GI50 (786-0 renal): 3.61 µM and 5.77 µM | TGI (786-0 renal): 21 µM and 30 µM | GI50 (A498 renal): 3.77 µM and 2.04 µM | TGI (A498 renal): 14 µM and 9.97 µM | GI50 (A549 NSCLC): 4.91 µM and 6.91 µM | TGI (A549 NSCLC): 22.1 µM and 32.1 µM | GI50 (ACHN renal): 5.6 µM and 14.4 µM | TGI (ACHN renal): 23.3 µM and 44.1 µM | GI50 (BT-549 breast): 10.4 µM and 15.1 µM | TGI (BT-549 breast): 40.7 µM and 43.9 µM | GI50 (CAKI-1 renal): 3.86 µM and 3.89 µM | TGI (CAKI-1 renal): 26.3 µM and 23.3 µM | GI50 (CCRF-CEM leukemia): 9.77 µM and 50 µM | TGI (CCRF-CEM leukemia): > 100 µM | GI50 (COLO 205 colon): 13.5 µM and 19.9 µM | TGI (COLO 205 colon): > 65 µM and 58.8 µM | GI50 (DU-145 prostate): 8.25 µM and 4.84 µM | TGI (DU-145 prostate): 25.1 µM and 20.9 µM | GI50 (EKVX NSCLC): 5.73 µM and 4.55 µM | TGI (EKVX NSCLC): 28.4 µM and 34.2 µM | GI50 (HCC-2998 colon): 12.4 µM and 15.5 µM | TGI (HCC-2998 colon): 36.1 µM and 42.3 µM | GI50 (HCT-116 colon): 3.4 µM and 3.85 µM | TGI (HCT-116 colon): > 100 µM | GI50 (HCT-15 colon): 12.2 µM and 16.9 µM | TGI (HCT-15 colon): 38.8 µM and 55.8 µM | GI50 (HL-60(TB) leukemia): 7.25 µM and 22.7 µM | TGI (HL-60(TB) leukemia): > 100 µM | GI50 (HOP-62 NSCLC): 12.2 µM and 16.5 µM | TGI (HOP-62 NSCLC): 46.2 µM and 36.8 µM | GI50 (HOP-92 NSCLC): 2.51 µM and 1.79 µM | TGI (HOP-92 NSCLC): 13.7 µM and 13 µM | GI50 (HS 578T breast): 9.09 µM and 14.1 µM | TGI (HS 578T breast): 49.3 µM and 43.8 µM | GI50 (HT29 colon): 11.9 µM and 15.1 µM | TGI (HT29 colon): 41.7 µM and 64.4 µM | GI50 (IGROV1 ovarian): 9.63 µM and 11.6 µM | TGI (IGROV1 ovarian): 37.5 µM and 33.6 µM | GI50 (K-562 leukemia): 3.44 µM and 3.16 µM | TGI (K-562 leukemia): > 100 µM | GI50 (KM12 colon): 12.7 µM and 9.64 µM | TGI (KM12 colon): 59 µM and 50.4 µM | GI50 (LOX IMVI melanoma): 7.11 µM and 7.68 µM | TGI (LOX IMVI melanoma): 31.9 µM and 67.5 µM | GI50 (M14 melanoma): 14.4 µM and 19.3 µM | TGI (M14 melanoma): > 100 µM | GI50 (MALME-3M melanoma): 12.1 µM and 13.3 µM | TGI (MALME-3M melanoma): 46.2 µM and 46 µM | GI50 (MCF7 breast): 8.25 µM and 15.4 µM | TGI (MCF7 breast): 31 µM and 49 µM | GI50 (MDA-MB-231 breast): 5.91 µM and 11.8 µM | TGI (MDA-MB-231 breast): 21.4 µM and 31.3 µM | GI50 (MDA-MB-435): 7.29 µM and 5.89 µM | TGI (MDA-MB-435): 49.2 µM and 38 µM | GI50 (MOLT-4 leukemia): 7.59 µM and 8.47 µM | TGI (MOLT-4 leukemia): > 100 µM | GI50 (NCI-H226 lung): 8.11 µM and 13.8 µM | TGI (NCI-H226 lung): 31.9 µM and 40.8 µM | GI50 (NCI-H23 lung): 5.98 µM and 12.4 µM | TGI (NCI-H23 lung): 25.5 µM and 40.4 µM | GI50 (NCI-H460 lung): 8.67 µM and 6.79 µM | TGI (NCI-H460 lung): > 68.6 µM and 83.7 µM | GI50 (NCI-H522 lung): 9.14 µM and 10.2 µM | TGI (NCI-H522 lung): 33.9 µM and 34.9 µM | GI50 (NCI/ADR-RES ovarian): 5.69 µM and 13.5 µM | TGI (NCI/ADR-RES ovarian): 26.6 µM and 42.1 µM | GI50 (OVCAR-3 ovarian): 6.23 µM and 5.13 µM | TGI (OVCAR-3 ovarian): 24 µM and 24.2 µM | GI50 (OVCAR-4 ovarian): 4.28 µM and 11.5 µM | TGI (OVCAR-4 ovarian): 21.4 µM and 36.2 µM | GI50 (OVCAR-5 ovarian): 15.7 µM and 19.6 µM | TGI (OVCAR-5 ovarian): 42.7 µM and 48.9 µM | GI50 (OVCAR-8 ovarian): 7.9 µM and 10.8 µM | TGI (OVCAR-8 ovarian): 30.9 µM and 46.3 µM | GI50 (PC-3 prostate): 5.44 µM and 6.68 µM | TGI (PC-3 prostate): 27 µM and 36.8 µM | GI50 (RPMI-8226 leukemia): 5.7 µM and 12 µM | TGI (RPMI-8226 leukemia): > 100 µM | GI50 (RXF 393 renal): 12.3 µM and 13.7 µM | TGI (RXF 393 renal): 29.2 µM and 32.1 µM | GI50 (SF-268 CNS): 7.22 µM and 5.25 µM | TGI (SF-268 CNS): 28.9 µM and 25.9 µM | GI50 (SF-295 CNS): 5.34 µM and 3.84 µM | TGI (SF-295 CNS): 26.5 µM and 26.1 µM | GI50 (SF-539 CNS): 6.74 µM and 10.5 µM | TGI (SF-539 CNS): 22 µM and 27.3 µM | GI50 (SK-MEL-2 melanoma): 13.1 µM and 21.6 µM | TGI (SK-MEL-2 melanoma): 44.9 µM and > 100 µM | GI50 (SK-MEL-28 melanoma): 12.9 µM and 16.8 µM | TGI (SK-MEL-28 melanoma): 33.6 µM and 40.1 µM | GI50 (SK-MEL-5 melanoma): 3.83 µM and 5.23 µM | TGI (SK-MEL-5 melanoma): 20.8 µM and 38.3 µM | GI50 (SK-OV-3 ovarian): 11.4 µM and 15.2 µM | TGI (SK-OV-3 ovarian): 30 µM and 34.5 µM | GI50 (SN12C renal): 10.8 µM and 14.1 µM | TGI (SN12C renal): 29.8 µM and 44.6 µM | GI50 (SNB-19 CNS): 7.85 µM and 21.3 µM | TGI (SNB-19 CNS): 32 µM and > 100 µM | GI50 (SNB-75 CNS): 10.1 µM and 12.9 µM | TGI (SNB-75 CNS): 25.8 µM and 32.5 µM | GI50 (SR leukemia): 28.2 µM and > 100 µM | TGI (SR leukemia): > 100 µM | GI50 (SW-620 colon): 10.6 µM and 13.9 µM | TGI (SW-620 colon): > 88.4 µM and 93.3 µM | GI50 (T-47D breast): 2.69 µM and 2.41 µM | TGI (T-47D breast): 25.2 µM and 17.6 µM | GI50 (TK-10 renal): 5.48 µM and 9.98 µM | TGI (TK-10 renal): 21.2 µM and 30.3 µM | GI50 (U251 CNS): 8.6 µM and 12 µM | TGI (U251 CNS): 28 µM and 38.4 µM | GI50 (UACC-257 melanoma): 10.7 µM and 12.6 µM | TGI (UACC-257 melanoma): 38 µM and 74.7 µM | GI50 (UACC-62 melanoma): 9.08 µM and 12.7 µM | TGI (UACC-62 melanoma): 27.6 µM and 35.7 µM | GI50 (UO-31 renal): 3.52 µM and 8.63 µM | TGI (UO-31 renal): 19 µM and 27 µM

CCOC(=O)c1sc2nc(SC)nc3c2c1NCN3C
TGI (786-0 renal): 47.3 µM | TGI (A498 renal): 57.6 µM | TGI (A549 NSCLC): > 100 µM | TGI (ACHN renal): 59.3 µM | TGI (BT-549 breast): > 100 µM | TGI (CAKI-1 renal): > 100 µM | TGI (CCRF-CEM leukemia): > 100 µM | TGI (COLO 205 colon): > 100 µM | TGI (DU-145 prostate): > 100 µM | TGI (HCC-2998 colon): > 100 µM | TGI (HCT-116 colon): > 100 µM | TGI (HCT-15 colon): > 100 µM | TGI (HOP-62 NSCLC): 47.2 µM | TGI (HOP-92 NSCLC): 27.9 µM | TGI (HS 578T breast): 59.4 µM | TGI (HT29 colon): > 100 µM | TGI (IGROV1 ovarian): 39.2 µM | TGI (KM12 colon): > 100 µM | TGI (LOX IMVI melanoma): > 100 µM | TGI (M14 melanoma): > 100 µM | TGI (MALME-3M melanoma): 57.6 µM | TGI (MDA-MB-231 breast): 92.5 µM | TGI (MDA-MB-435): > 100 µM | TGI (MDA-N): > 100 µM | TGI (NCI-H226 lung): > 100 µM | TGI (NCI-H23 lung): 59.1 µM | TGI (NCI-H460 lung): > 100 µM | TGI (NCI/ADR-RES ovarian): > 100 µM | TGI (OVCAR-3 ovarian): > 100 µM | TGI (OVCAR-4 ovarian): > 100 µM | TGI (OVCAR-5 ovarian): > 100 µM | TGI (OVCAR-8 ovarian): 25.9 µM | TGI (PC-3 prostate): > 100 µM | TGI (RPMI-8226 leukemia): > 100 µM | TGI (RXF 393 renal): 32.8 µM | TGI (SF-268 CNS): 61.5 µM | TGI (SF-295 CNS): > 100 µM | TGI (SK-MEL-2 melanoma): > 100 µM | TGI (SK-MEL-28 melanoma): > 100 µM | TGI (SK-MEL-5 melanoma): > 100 µM | TGI (SK-OV-3 ovarian): 38.3 µM | TGI (SN12C renal): > 100 µM | TGI (SNB-19 CNS): 75.3 µM | TGI (SNB-75 CNS): 22.9 µM | TGI (T-47D breast): 25.9 µM | TGI (TK-10 renal): > 100 µM | TGI (U251 CNS): 46.9 µM | TGI (UACC-257 melanoma): > 100 µM | TGI (UACC-62 melanoma): > 100 µM | TGI (UO-31 renal): 37.6 µM
